Assay results taken from patent US12286632B2, “Rationally-designed synthetic peptide shuttle agents for delivering polypeptide cargos from an extracellular space to the cytosol and/or nucleus of a target eukaryotic cell, uses thereof, methods and kits relating to same” (Feldan Bio Inc., priority 2016, dated 2025).

How the values were obtained:
rat parietal cortex = test: In vivo GFP-NLS delivery by stereotaxic injection, fluorescence microscopy of brain slices; conditions: shuttle 20 μM + GFP-NLS 20 μM, 5 μL injected over 10 min; sacrificed 2 h after surgery
Protocol: In separate sterile 1.5-mL tubes, shuttle agent His-CM18-PTD4 was diluted in sterile distilled water at room temperature. […] One negative control was included for the experiment, which corresponds to the injection of the GFP-NLS alone.
Bilateral injections were performed in the parietal cortex of three rats. In the left parietal cortex (ipsilateral), a mix composed of the shuttle agent (20 μM) and the GFP-NLS (20 μM) was injected, and in the right parietal cortex (contralateral), only the GFP-NLS (20 μM) was injected as a negative control. For surgical procedures, […] were anesthetized with isoflurane. Then the animal was placed in a stereotaxic frame, and the skull surface was exposed. Two holes were drilled at the appropriate sites to allow bilateral infusion of the shuttle/cargo mix or GFP-NLS alone (20 μM) with 5-μL Hamilton syringe. Antero-posterior (AP), lateral (L), and dorso-ventral (DV) coordinates were taken relative to the bregma: (a) AP+0.48 mm, L±3 mm, V-5 mm; (b) AP-b 2 mm, L±1.3 mm, V-1.5 mm; (c) AP-2.6 mm, L 1.5 mm, V-1.5 mm. The infused volume of the shuttle/cargo mix or cargo alone was 5 μL per injection site and the injection was performed for 10 minutes. […]
Dorso-ventral rat brain slices were collected and analysed by fluorescence microscopy and results are shown in at 4× (FIG. 48A), 10× (FIG. 48C) and 20× (FIG. 48D) magnifications. […]

THP-1 cells = test: HOXB4-WT transduction: target gene mRNA by real-time PCR (Fold over control) and total RNA (ng/μL) as marker for cell viability; type: cell-based, human; conditions: for Total RNA in ng/μL (mean ± St. Dev): THP-1, serum
Protocol: Control and treated cells are transferred to separate sterile 1.5-mL tubes and centrifuged for 5 minutes at 300g. The cell pellets are resuspended in appropriate buffer to lyse the cells. RNAase-free 70% ethanol is then added followed by mixing by pipetting. The lysates are transferred to an RNeasy™ Mini spin column and centrifuged 30 seconds at 13000 RPM. After several washes with appropriate buffers and centrifugation steps, the eluates are collected in sterile 1.5-mL tubes on ice, and the RNA quantity in each tube is then quantified with a spectrophotometer. For DNase treatment, 2 μg of RNA is diluted in 15 μL of RNase-free water. 1.75 μL of 10X DNase buffer and 0.75 μL of DNase is then added, followed by incubation at 37° C. for 15 minutes. For reverse transcriptase treatment, 0.88 μL of EDTA […] is added, followed by incubation at 75° C. for 5 minutes. In a PCR tube, […] of DNase-treated RNA is mixed with 4 μL of iScript™ Reverse transcription Supermix (5X) and […] of nuclease-free water. The mix is incubated in a PCR machine with the following program: 5 min at 25° C., 30 min at 42° C. and 5 min at 85° C. Newly synthesized cDNA is transferred in sterile 1.5-mL tubes and diluted in 2 μL of nuclease-free water. 18 μL per well of a qPCR machine (CFX-96™) mix is then added in a PCR plate for analysis.
Briefly, THP-1 cells were plated at 30 000 cells/well one day before transduction. HOXB4-WT recombinant protein ([…]; Example 14.1) was co-incubated with different concentrations of His-CM18-PTD4 ([…]) and then exposed to THP-1 cells for 2.5 hours in the presence of serum. The cells were subjected to real time-PCR analysis as described in Example 14.2 to measure the mRNA levels of a target gene as a marker for HOXB4 activity, which was then normalized to the target gene mRNA levels detected in the negative control cells (no treatment), to obtain a “Fold over control” value. Total RNA levels (ng/μL) were also measured as a marker for cell viability.
Briefly, THP-1 cells were plated at 30 000 cells/well one day before the first time course experiment. HOXB4-WT recombinant protein (1.5 μM; Example 14.1) was co-incubated with His-CM18-PTD4 (0.8 μM) and then exposed to THP-1 cells for 0, 2.5, 4, 24 or 48 hours in presence of serum. The cells were subjected to real time-PCR analysis as described in Example 14.2 to measure mRNA levels of a target gene as a marker for HOXB4 activity, which was then normalized to the target gene mRNA levels detected in the negative control cells (no treatment), to obtain a “Fold over control” value. Total RNA levels (ng/μL) were also measured as a marker for cell viability.
Briefly, THP-1 cells were plated at 30 000 cells/well one day before the first time course experiment. HOXB4-WT recombinant protein (0.3 μM; Example 14.1) was co-incubated with His-CM18-PTD4 (0.8 μM) and then exposed to THP-1 cells for 0, 0.5, 1, 2, 2.5, 3 or 4 hours in presence of serum. The cells were subjected to real time-PCR analysis as described in Example 14.2 to measure mRNA levels of a target gene as a marker for HOXB4 activity, which was then normalized to target gene mRNA levels detected in the negative control cells (no treatment), to obtain a “Fold over control” value. Total RNA levels (ng/μL) were also measured as a marker for cell viability.
Briefly, THP-1 cells were plated at 30 000 cells/well one day before the first time course experiment. HOXB4-WT recombinant protein (1.5 μM; Example 14.1) co-incubated with the shuttle agents His-CM18-PTD4, TAT-KALA, EB1-PTD4, His-C(LLKK)3C-PTD4 and His-CM18-PTD4-His at 0.8 μM, and then exposed to THP-1 cells for 2.5 hours in presence of serum. The cells were subjected to real time-PCR analysis as described in Example 14.2 to measure mRNA levels of a target gene as a marker for HOXB4 activity, which was then normalized to target gene mRNA levels detected in the negative control cells (no treatment), to obtain a “Fold over control” value. […]

in vitro = conditions: human, HeLa cells

## CC[C@H](C)[C@H](NC(=O)[C@H](CCCCN)NC(=O)[C@H](CCCCN)NC(=O)[C@H](Cc1ccccc1)NC(=O)[C@H](CC(C)C)NC(=O)[C@H](CCCCN)NC(=O)[C@H](Cc1c[nH]c2ccccc12)NC(=O)[C@H](CCCCN)NC(=O)[C@H](Cc1c[nH]cn1)NC(=O)[C@H](Cc1c[nH]cn1)NC(=O)[C@H](Cc1c[nH]cn1)NC(=O)[C@H](Cc1c[nH]cn1)NC(=O)[C@H](Cc1c[nH]cn1)NC(=O)[C@@H](N)Cc1c[nH]cn1)C(=O)NCC(=O)N[C@@H](C)C(=O)N[C@H](C(=O)N[C@@H](CC(C)C)C(=O)N[C@@H](CCCCN)C(=O)N[C@H](C(=O)N[C@@H](CC(C)C)C(=O)N[C@H](C(=O)N[C@H](C(=O)NCC(=O)N[C@@H](Cc1ccc(O)cc1)C(=O)N[C@@H](C)C(=O)N[C@@H](CCCNC(=N)N)C(=O)N[C@@H](C)C(=O)N[C@@H](C)C(=O)N[C@@H](C)C(=O)N[C@@H](CCCNC(=N)N)C(=O)N[C@@H](CCC(N)=O)C(=O)N[C@@H](C)C(=O)N[C@@H](CCCNC(=N)N)C(=O)N[C@@H](C)C(=O)O)[C@@H](C)O)[C@@H](C)O)C(C)C)C(C)C [His-CM18-PTD4]
Rat parietal cortex
  in vivo delivery of GFP-NLS to cell nuclei: delivery of the GFP-NLS in the nucleus of cells from the deeper layers of the parietal cortex (injection site) to the corpus callus and the dorsal level of the striatum (putamen)
THP-1 cells; 2.5 hours in the presence of serum
  target gene mRNA transcription after HOXB4-WT transduction (in words): dose-dependent increase in mRNA transcription of the target gene
THP-1 cells; Table 14.1, 2.5 hours, shuttle 1 μM, HOXB4-WT 0 μM (alone)
  Total RNA in ng/μL (mean ± St. Dev): 252 ± 10.7 ng/µL
THP-1 cells; Table 14.2, shuttle 0.8 μM, HOXB4-WT 0 μM (alone), exposure 2.5 h
  Total RNA in ng/μL (mean ± St. Dev): 184 ± 6.0 ng/µL
THP-1 cells; Table 14.3, shuttle 0 μM, HOXB4-WT 0.3 μM (alone), exposure 2.5 h
  Total RNA in ng/μL (mean ± St. Dev): 260 ± 7.1 ng/µL
THP-1 cells; Table 14.4, shuttle 0 μM, HOXB4-WT 1.5 μM (alone), exposure 2.5 h
  Total RNA in ng/μL (mean ± St. Dev): 303.9 ± 7.6 ng/µL
In vitro
  viability: 63.2 ± 4.07%
